Reference: paper PMC8887546, “Design and Synthesis of Brain Penetrant Glycopeptide Analogues of PACAP With Neuroprotective Potential for Traumatic Brain Injury and Parkinsonism” (Frontiers in drug discovery, 2022)

Key:
[1] = molecular target: T1, human PAC1 receptor (Homo sapiens, UniProt P41586); test: cAMP stimulation in CHO cells expressing PAC1; format: cell-based
T1 construct: expressed in transfected cells; host or cells: CHO cells (G418 selection)
T1 sequence (P41586 21-468): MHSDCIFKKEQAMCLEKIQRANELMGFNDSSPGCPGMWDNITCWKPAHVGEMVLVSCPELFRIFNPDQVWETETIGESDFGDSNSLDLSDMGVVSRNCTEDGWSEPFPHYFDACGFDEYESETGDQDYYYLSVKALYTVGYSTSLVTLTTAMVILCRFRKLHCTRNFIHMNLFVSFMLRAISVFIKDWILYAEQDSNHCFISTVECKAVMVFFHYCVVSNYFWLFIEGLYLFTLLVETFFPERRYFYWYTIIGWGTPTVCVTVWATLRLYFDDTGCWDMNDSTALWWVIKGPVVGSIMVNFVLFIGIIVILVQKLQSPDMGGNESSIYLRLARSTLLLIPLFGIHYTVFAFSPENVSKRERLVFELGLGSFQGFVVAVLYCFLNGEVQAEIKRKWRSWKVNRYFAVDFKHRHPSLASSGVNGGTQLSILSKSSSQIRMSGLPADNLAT
In short: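 Serum-starved CHO cells expressing human receptors were pre-treated 20 min with 500 μM IBMX, then exposed to agonist concentration curves for 10 min in 500 μM IBMX. cAMP quantified by competition with bovine PKA and ^3H-cAMP (1 h, room temperature), scintillation read.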

[2] = tested on: C57BL/6 mice, diffuse TBI; test: Neurological severity score after TBI; format: in vivo, mouse; conditions: 10 mg/kg i.p. 30 min prior to TBI, 2, 5 and 7 DPI
Description: (§1) 30 min prior to TBI or sham injury, mice were randomly assigned to a therapeutic group and received an intraperitoneal injection of 2LS80Mel (10 mg/kg) or sterile saline (0.25 ml). Groups were as follows: TBI-2LS80Mel n = 17; TBI-vehicle n = 17; sham n = 22 (vehicle n = 11, 2LS80Mel n = 11).
(§2) For injury induction 24 h post-surgery, mice were re-anesthetized with 5% isoflurane delivered for 3 min. The cap was removed from the injury-hub assembly and the dura was visually inspected through the hub to ensure it was intact with no debris. […] Injured mice were monitored for presence of a forearm fencing response and righting reflex times were recorded as indicators of injury severity ([Hosseini and Lifshitz, 2009]). […] After spontaneously righting, mice were placed in a heated recovery cage and monitored until they were ambulatory (approximately 5–15 min) before being returned to their piezoelectric sleep cage (see below). […]
Neurological impairments were assessed at 2, 5, and 7 DPI using an 8-point NSS paradigm adapted from those previously used in experimental models of TBI and previously reported by our lab ([Chen et al., 1996]; [Semple et al., 2010]; [Pleasant et al., 2011]; [Ziebell et al., 2011]; [Rowe et al., 2018]; [Rowe et al., 2019]). […]

[3] = tested on: C57BL/6 mice, diffuse TBI; test: Novel object recognition after TBI; format: in vivo, mouse; conditions: 10 mg/kg i.p. 30 min prior to TBI, 14 DPI
Description: as §1, §2
Cognitive impairment was tested at 14 DPI using the novel object recognition (NOR) test as previously published ([Rowe et al., 2014b]; [Harrison et al., 2015]; [Saber et al., 2021]). […] For testing, the times spent actively investigating the novel and familiar object were quantified. […] If an animal climbed onto an object and sniffed into the air, this time was not calculated into the exploration of the novel object.

| Compound | EC50 [1] [nM] | Emax ([1]; CHO) [%] | Neurological severity score (sensorimotor deficits) [2] | Novel object recognition (cognitive deficits) [3] |
| --- | --- | --- | --- | --- |
| [2H]C([2H])([2H])C([2H])(C([2H])([2H])[2H])[C@]([2H])(NC(=O)[C@H](C)NC(=O)[C@H](C)NC(=O)[C@H](CC(C)C)NC(=O)[C@H](Cc1ccc(O)cc1)NC(=O)[C@H](CCCCN)NC(=O)[C@H](CCCCN)NC(=O)[C@@]([2H])(NC(=O)[C@H](C)NC(=O)[C@H](CC(C)C)NC(=O)[C@H](CCC(N)=O)NC(=O)[C@H](CCCCN)NC(=O)[C@H](CCCNC(=N)N)NC(=O)[C@H](Cc1ccc(O)cc1)NC(=O)[C@H](CCCNC(=N)N)NC(=O)[C@H](CO)NC(=O)[C@H](Cc1ccc(O)cc1)NC(=O)[C@H](CO)NC(=O)[C@H](CC(=O)O)NC(=O)[C@@H](NC(=O)[C@H](Cc1ccccc1)NC(=O)[C@@H](NC(=O)CNC(=O)[C@H](CC(=O)O)NC(=O)[C@H](CO)NC(=O)[C@@H](N)Cc1c[nH]cn1)[C@@H](C)CC)[C@@H](C)O)C([2H])(C([2H])([2H])[2H])C([2H])([2H])[2H])C(=O)N[C@@H](CC(C)C)C(=O)N[C@@H](CO[C@@H]1O[C@H](CO)[C@@H](O[C@@H]2O[C@H](CO)[C@H](O)[C@H](O)[C@H]2O)[C@H](O)[C@H]1O)C(N)=O [Compound 2LS98Lac] | 0.72 | 93 | – | – |
| CC[C@H](C)[C@H](NC(=O)CNC(=O)[C@H](CC(=O)O)NC(=O)[C@H](CO)NC(=O)[C@@H](N)Cc1c[nH]cn1)C(=O)N[C@@H](Cc1ccccc1)C(=O)N[C@H](C(=O)N[C@@H](CC(=O)O)C(=O)N[C@@H](CO)C(=O)N[C@@H](Cc1ccc(O)cc1)C(=O)N[C@@H](CO)C(=O)N[C@@H](CCCNC(=N)N)C(=O)N[C@@H](Cc1ccc(O)cc1)C(=O)N[C@@H](CCCNC(=N)N)C(=O)N[C@@H](CCCCN)C(=O)N[C@@H](CCC(N)=O)C(=O)N[C@@H](CC(C)C)C(=O)N[C@@H](C)C(=O)N[C@H](C(=O)N[C@@H](CCCCN)C(=O)N[C@@H](CCCCN)C(=O)N[C@@H](Cc1ccc(O)cc1)C(=O)N[C@@H](CC(C)C)C(=O)N[C@@H](C)C(=O)N[C@@H](C)C(=O)N[C@H](C(=O)N[C@@H](CC(C)C)C(=O)N[C@@H](CO[C@@H]1O[C@H](CO[C@H]2O[C@H](CO)[C@H](O)[C@H](O)[C@H]2O)[C@@H](O)[C@H](O)[C@H]1O)C(N)=O)C(C)C)C(C)C)[C@@H](C)O [Compound 2LS80Mel] | – | – | deficits were prevented | no TBI-induced cognitive deficits among any group |
